From ChEMBL document CHEMBL4038272, “Synthesis and biological evaluation of novel podophyllotoxin-NSAIDs conjugates as multifunctional anti-MDR agents against resistant human hepatocellular carcinoma Bel-7402/5-FU cells” (Eur J Med Chem, 2017) come the findings set out here.

The structures appear in SMILES notation. Activity calls are given as the source filed them. The calls are words filed in the database; no cut-off is given here.

One assay concerns Bel-7402. Kind of assay: Antiproliferative activity against human Bel7402 cells after 72 hrs by CCK-8 assay. Format: functional, cell-based. To be noted: Bel-7402, 72 h. (Tetrazolium assays rely on reduction of a dye to a coloured formazan, in cell work by metabolically active cells.)
The test system of assay [1] is Bel7402/5-FU. As to the kind of experiment: Antiproliferative activity against human Bel7402/5-FU cells after 72 hrs by CCK-8 assay. The class given is functional, cell-based.
The test system of the next assay is L02. As to the kind of experiment: Antiproliferative activity against human LO2 cells after 72 hrs by CCK-8 assay. Format: cell-based. The conditions noted are these: L02, 72 h.
A short description of assay [2]: Resistant factor, ratio of IC50 for human Bel7402/5-FU cells to IC50 for human Bel7402 cells. Format: functional.
Assay [3] deals with Bel7402/5-FU. Kind of assay: Cell cycle arrest in human Bel7402/5-FU cells assessed as accumulation at G1 phase at 0.1 uM after 48 hrs by propidium iodide staining based flow cytometry (reference value: 52.21%). The class given is functional.
Assay [4] has as its system Bel7402/5-FU. As to the kind of experiment: Cell cycle arrest in human Bel7402/5-FU cells assessed as accumulation at S phase at 0.1 uM after 48 hrs by propidium iodide staining based flow cytometry (reference value: 12.62%). The class given is functional. On the technique in general: Flow cytometry measures light scatter and fluorescence of single cells or particles in a stream.

The subject of assay [5] is Bel7402/5-FU. As to the kind of experiment: Cell cycle arrest in human Bel7402/5-FU cells assessed as accumulation at G2 phase at 0.1 uM after 48 hrs by propidium iodide staining based flow cytometry (reference value: 35.16%). The class given is functional.
Assay [6] deals with Bel7402/5-FU. As to the kind of experiment: Induction of apoptosis in human Bel7402/5-FU cells assessed as reduction in cell number at 0.1 uM after 24 hrs by Hoechst 33342 staining based fluorescent microscopic method. Format: functional.
Assay [7] deals with Bel7402/5-FU. Kind of assay: Induction of apoptosis in human Bel7402/5-FU cells assessed as morphological changes at 0.1 uM after 24 hrs by Hoechst 33342 staining based fluorescent microscopic method. Format: functional, cell-based.
Assay [8] relates to Bel7402/5-FU. As to the kind of experiment: Induction of apoptosis in human Bel7402/5-FU cells assessed as condensed nuclei at 0.1 uM after 24 hrs by Hoechst 33342 staining based fluorescent microscopic method. The class given is functional, cell-based.
In assay [9] the test system is Bel7402/5-FU. As to the kind of experiment: Induction of apoptosis in human Bel7402/5-FU cells at 0.1 uM after 24 hrs by Hoechst 33342 staining based fluorescent microscopic method. Format: functional, cell-based.
In assay [10] the test system is Bel7402/5-FU. As to the kind of experiment: Induction of apoptosis in human Bel7402/5-FU cells assessed as live cells at 0.1 uM after 48 hrs by Annexin V-APC/7-AAD staining based flow cytometry (reference value: 91.08%). Format: functional.
Assay [11] deals with Bel7402/5-FU. As to the kind of experiment: Induction of apoptosis in human Bel7402/5-FU cells assessed as early apoptotic cells at 0.1 uM after 48 hrs by Annexin V-APC/7-AAD staining based flow cytometry (reference value: 5.24%). Format: functional.
Assay [12] deals with Bel7402/5-FU. Kind of assay: Induction of apoptosis in human Bel7402/5-FU cells assessed as late apoptotic cells at 0.1 uM after 48 hrs by Annexin V-APC/7-AAD staining based flow cytometry (reference value: 3%). Format: functional.
Assay [13] concerns Bel7402/5-FU. As to the kind of experiment: Induction of apoptosis in human Bel7402/5-FU cells assessed as necrotic cells at 0.1 uM after 48 hrs by Annexin V-APC/7-AAD staining based flow cytometry (reference value: 0.58%). Format: functional.
The subject of assay [14] is Bel7402/5-FU. As to the kind of experiment: Induction of microtubule disruption in human Bel7402/5-FU cells at 0.1 uM after 24 to 48 hrs by DAPI staining based immunofluorescence microscopic method. The class given is functional, cell-based.
Assay [15] relates to Bel7402/5-FU. As to the kind of experiment: Reduction in microtubule density in human Bel7402/5-FU cells at 0.1 uM after 24 to 48 hrs by DAPI staining based immunofluorescence microscopic method. Format: functional, cell-based.
The subject of assay [16] is Bel7402/5-FU. As to the kind of experiment: Antimigratory activity in human Bel7402/5-FU cells at 0.1 uM after 24 hrs by wound healing assay. Format: functional, cell-based.
For assay [17], the system named is Bel7402/5-FU. As to the kind of experiment: Effect on CDK1 expression in human Bel7402/5-FU cells assessed as ratio of CDK1 to beta-actin level at 0.1 uM after 48 hrs by Western blot analysis (reference value: 0.33). Format: functional. On the technique in general: A western blot detects proteins with antibodies after separation by electrophoresis.
The subject of assay [18] is Bel7402/5-FU. Kind of assay: Effect on CDK2 expression in human Bel7402/5-FU cells assessed as ratio of CDK2 to beta-actin level at 0.1 uM after 48 hrs by Western blot analysis (reference value: 0.43). Format: functional.
In assay [19] the test system is Bel7402/5-FU. As to the kind of experiment: Effect on cyclinA expression in human Bel7402/5-FU cells assessed as ratio of cyclinA to beta-actin level at 0.1 uM after 48 hrs by Western blot analysis (reference value: 0.39). The class given is functional.
The test system of assay [20] is Bel7402/5-FU. Kind of assay: Effect on cyclinB1 expression in human Bel7402/5-FU cells assessed as ratio of cyclinB1 to beta-actin level at 0.1 uM after 48 hrs by Western blot analysis (reference value: 0.53). Format: functional.
For assay [21], the system named is Bel7402/5-FU. As to the kind of experiment: Induction of apoptosis in human Bel7402/5-FU cells assessed as ratio of cleaved caspase-3 to beta-actin level at 0.1 uM after 48 hrs by Western blot analysis (reference value: 0.19). Format: functional.
Assay [22] relates to Bel7402/5-FU. As to the kind of experiment: Induction of apoptosis in human Bel7402/5-FU cells assessed as ratio of cleaved caspase-8 to beta-actin level at 0.1 uM after 48 hrs by Western blot analysis (reference value: 0.17). Format: functional.
In assay [23] the test system is Bel7402/5-FU. As to the kind of experiment: Induction of apoptosis in human Bel7402/5-FU cells assessed as ratio of cleaved caspase-9 to beta-actin level at 0.1 uM after 48 hrs by Western blot analysis (reference value: 0.17). Format: functional.
Assay [24] relates to Bel7402/5-FU. Kind of assay: Induction of apoptosis in human Bel7402/5-FU cells assessed as ratio of cleaved PARP to beta-actin level at 0.1 uM after 48 hrs by Western blot analysis (reference value: 0.2). Format: functional.
Assay [25] concerns Bel7402/5-FU. Kind of assay: Effect on COX2 expression in human Bel7402/5-FU cells assessed as ratio of COX2 to beta-actin level at 0.1 uM after 48 hrs by Western blot analysis (reference value: 0.36). Format: functional.
The subject of assay [26] is Bel7402/5-FU. As to the kind of experiment: Effect on COX1 expression in human Bel7402/5-FU cells assessed as ratio of COX1 to beta-actin level at 0.1 uM after 48 hrs by Western blot analysis (reference value: 0.48). Format: functional.
Assay [27] deals with Bel7402/5-FU. As to the kind of experiment: Effect on VEGFR2 expression in human Bel7402/5-FU cells assessed as ratio of VEGFR2 to beta-actin level at 0.1 uM after 48 hrs by Western blot analysis (reference value: 0.25). The class given is functional.
For assay [28], the system named is Bel7402/5-FU. As to the kind of experiment: Effect on MMP2 expression in human Bel7402/5-FU cells assessed as ratio of MMP2 to beta-actin level at 0.1 uM after 48 hrs by Western blot analysis (reference value: 0.3). The class given is functional.
In assay [29] the test system is Bel7402/5-FU. As to the kind of experiment: Effect on E-cadherin expression in human Bel7402/5-FU cells assessed as ratio of E-cadherin to beta-actin level at 0.1 uM after 48 hrs by Western blot analysis (reference value: 0.2). The class given is functional.
Assay [30] deals with Bel7402/5-FU. Kind of assay: Effect on iNOS expression in human Bel7402/5-FU cells assessed as ratio of iNOS to beta-actin level at 0.1 uM after 48 hrs by Western blot analysis (reference value: 0.13). The class given is functional.
Assay [31] has as its system Bel7402/5-FU. As to the kind of experiment: Effect on P-gp expression in human Bel7402/5-FU cells assessed as ratio of P-gp to beta-actin level at 0.1 uM after 48 hrs by Western blot analysis (reference value: 0.59). Format: functional.
Assay [32] has as its system Bel7402/5-FU. Kind of assay: Effect on MRP1 expression in human Bel7402/5-FU cells assessed as ratio of MRP1 to beta-actin level at 0.1 uM after 48 hrs by Western blot analysis (reference value: 0.58). Format: functional.
Assay [33] concerns the target Mitogen-activated protein kinase; ERK1/ERK2 (Homo sapiens) (UniProt P27361+P28482). Kind of assay: Effect on ERK1/2 phosphorylation in human Bel7402/5-FU cells assessed as ratio of phosphorylated ERK1/2 to beta-actin level at 0.1 uM after 48 hrs by Western blot analysis (reference value: 0.59). Format: cell-based.
The target of assay [34] is Signal transducer and activator of transcription 3 (Homo sapiens) (UniProt P40763). Kind of assay: Effect on STAT3 phosphorylation in human Bel7402/5-FU cells assessed as ratio of phosphorylated STAT3 to beta-actin level at 0.1 uM after 48 hrs by Western blot analysis (reference value: 0.3). The class given is cell-based.
For assay [35], the target named is RAC-alpha serine/threonine-protein kinase (Homo sapiens) (UniProt P31749). Kind of assay: Effect on AKT phosphorylation in human Bel7402/5-FU cells assessed as ratio of phosphorylated AKT to beta-actin level at 0.1 uM after 48 hrs by Western blot analysis (reference value: 0.39). Format: cell-based.
RAC-alpha serine/threonine-protein kinase (Homo sapiens), sequence (P31749 whole entry): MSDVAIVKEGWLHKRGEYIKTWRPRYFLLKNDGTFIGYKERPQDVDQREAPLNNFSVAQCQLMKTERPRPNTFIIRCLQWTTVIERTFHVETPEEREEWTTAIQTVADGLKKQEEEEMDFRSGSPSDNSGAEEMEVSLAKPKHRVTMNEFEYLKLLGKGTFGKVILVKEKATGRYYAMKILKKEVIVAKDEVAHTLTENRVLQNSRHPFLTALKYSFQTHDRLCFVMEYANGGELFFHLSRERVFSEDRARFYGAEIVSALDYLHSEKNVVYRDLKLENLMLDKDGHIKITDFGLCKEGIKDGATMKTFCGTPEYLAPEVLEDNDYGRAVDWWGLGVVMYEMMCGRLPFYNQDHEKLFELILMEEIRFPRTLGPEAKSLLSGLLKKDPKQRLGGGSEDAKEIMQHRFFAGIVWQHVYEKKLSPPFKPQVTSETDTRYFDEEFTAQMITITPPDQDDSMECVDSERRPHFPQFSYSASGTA

Signal transducer and activator of transcription 3 (Homo sapiens), sequence (P40763 whole entry): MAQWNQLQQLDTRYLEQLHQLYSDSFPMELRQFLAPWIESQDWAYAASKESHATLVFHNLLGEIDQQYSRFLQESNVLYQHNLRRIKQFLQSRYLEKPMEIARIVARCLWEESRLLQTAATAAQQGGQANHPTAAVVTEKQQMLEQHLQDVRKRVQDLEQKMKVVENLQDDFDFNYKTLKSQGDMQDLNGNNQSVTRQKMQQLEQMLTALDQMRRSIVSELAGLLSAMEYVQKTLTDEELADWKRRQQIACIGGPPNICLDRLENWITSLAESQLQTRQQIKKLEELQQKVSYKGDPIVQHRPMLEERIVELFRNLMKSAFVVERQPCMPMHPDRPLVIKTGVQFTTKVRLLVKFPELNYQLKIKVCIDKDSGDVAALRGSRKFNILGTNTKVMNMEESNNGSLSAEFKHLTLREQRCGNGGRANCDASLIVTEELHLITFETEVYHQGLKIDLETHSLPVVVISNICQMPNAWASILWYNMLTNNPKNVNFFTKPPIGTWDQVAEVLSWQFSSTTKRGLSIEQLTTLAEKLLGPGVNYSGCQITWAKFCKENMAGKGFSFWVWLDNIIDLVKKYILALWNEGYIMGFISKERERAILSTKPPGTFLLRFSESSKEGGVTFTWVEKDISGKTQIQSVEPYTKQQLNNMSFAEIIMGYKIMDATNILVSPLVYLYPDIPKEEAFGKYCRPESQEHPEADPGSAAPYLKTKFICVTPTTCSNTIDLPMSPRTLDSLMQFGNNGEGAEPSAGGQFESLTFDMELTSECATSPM
Mitogen-activated protein kinase; ERK1/ERK2 (Homo sapiens), sequence (P27361 whole entry, looked up): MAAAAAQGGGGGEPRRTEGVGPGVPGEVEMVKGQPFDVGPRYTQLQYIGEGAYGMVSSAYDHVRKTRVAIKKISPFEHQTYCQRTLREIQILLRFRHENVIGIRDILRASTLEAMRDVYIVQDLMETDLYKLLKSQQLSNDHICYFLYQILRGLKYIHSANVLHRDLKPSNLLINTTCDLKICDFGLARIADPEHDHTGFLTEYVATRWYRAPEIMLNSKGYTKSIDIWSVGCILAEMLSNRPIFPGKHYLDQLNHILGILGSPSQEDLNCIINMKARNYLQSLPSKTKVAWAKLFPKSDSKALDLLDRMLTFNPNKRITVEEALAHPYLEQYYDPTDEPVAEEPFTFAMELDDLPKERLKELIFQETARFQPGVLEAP
Mitogen-activated protein kinase; ERK1/ERK2 (Homo sapiens), sequence (P28482 whole entry, looked up): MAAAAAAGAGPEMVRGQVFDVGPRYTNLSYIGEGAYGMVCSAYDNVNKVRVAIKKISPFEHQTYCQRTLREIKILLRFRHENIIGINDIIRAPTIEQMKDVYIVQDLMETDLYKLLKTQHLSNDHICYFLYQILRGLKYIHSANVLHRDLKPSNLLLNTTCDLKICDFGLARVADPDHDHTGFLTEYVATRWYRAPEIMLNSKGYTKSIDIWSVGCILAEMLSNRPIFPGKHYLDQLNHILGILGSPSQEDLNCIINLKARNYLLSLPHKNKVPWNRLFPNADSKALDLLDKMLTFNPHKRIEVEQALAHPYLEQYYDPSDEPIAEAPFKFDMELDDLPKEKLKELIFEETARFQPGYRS

Regarding `O=c1[nH]cc(F)c(=O)[nH]1` [FLUOROURACIL], the IC50 (usually the midpoint of a concentration-inhibition curve) was 5.94 µM in the assay on Bel-7402, more than 100 µM in the assay with Bel7402/5-FU [1] and 32.5 µM in the assay with L02. Also, in assay [2], the “Ratio IC50” value was more than 16.83.
For `CC(=O)Oc1ccccc1C(=O)O` [ASPIRIN], the IC50 with Bel-7402, in the assay on Bel7402/5-FU [1] and in the assay with L02 was more than 100 µM in each case.
With `COc1cc([C@@H]2c3cc4c(cc3[C@H](OC(=O)c3ccccc3OC(C)=O)[C@H]3COC(=O)[C@H]23)OCO4)cc(OC)c1OC`, the half-inhibitory concentration (IC50) came to 0.199 µM in the assay on Bel-7402, 0.065 µM with Bel7402/5-FU [1] and 0.09 µM in the assay with L02. The “Ratio IC50” value in assay [2] is reported as 0.32. Further, the Activity in the assay on Bel7402/5-FU [3] stood at 17.03%; in the assay on Bel7402/5-FU [4], 24.69%; in the assay with Bel7402/5-FU [5], 58.28%; in the assay on Bel7402/5-FU [10] it was 65.12%; in the assay with Bel7402/5-FU [11], 5.45%; in the assay with Bel7402/5-FU [12], 24.2%. Further, the Activity in the assay on Bel7402/5-FU [13] came out at 5.23%. The outcome in the assay with Bel7402/5-FU [6], in the assay with Bel7402/5-FU [7], in the assay with Bel7402/5-FU [8], in the assay with Bel7402/5-FU [9], in the assay on Bel7402/5-FU [14] and in the assay on Bel7402/5-FU [15] was Active. Also, the result in the assay with Bel7402/5-FU [16] was Active. Moreover, the Ratio in the assay with Bel7402/5-FU [17] is listed as 0.28; in the assay with Bel7402/5-FU [18], 0.39; in the assay with Bel7402/5-FU [19], 0.2; with Bel7402/5-FU [20], 0.09; in the assay on Bel7402/5-FU [21], 0.53; in the assay on Bel7402/5-FU [22] it was 0.57. In addition, the Ratio in the assay with Bel7402/5-FU [23] is 0.57; with Bel7402/5-FU [24], 0.47; with Bel7402/5-FU [25], 0.14; in the assay with Bel7402/5-FU [26], 0.31; in the assay on Bel7402/5-FU [27], 0.1; with Bel7402/5-FU [28] it was 0.16. Also, the Ratio was 0.31 in the assay on Bel7402/5-FU [29]; 0.16 with Bel7402/5-FU [30]; 0.52 in the assay with Bel7402/5-FU [31]; 0.31 in the assay on Bel7402/5-FU [32]; 0.19 in [33]; 0.17 in assay [34]. Besides, the Ratio in [35] turned out to be 0.29.
In the case of `CC(C)Cc1ccc(C(C)C(=O)O)cc1` (stereo not given) [IBUPROFEN], the IC50 with Bel-7402, in the assay on Bel7402/5-FU [1] and in the assay with L02 was more than 100 µM in each case.
As to `COc1ccc2c(c1)c(CC(=O)O)c(C)n2C(=O)c1ccc(Cl)cc1` [INDOMETHACIN], the IC50 with Bel-7402, in the assay on Bel7402/5-FU [1] and in the assay on L02 was more than 100 µM each time.
